# Assay results as given in patent US6692937B2, “DNA encoding small and intermediate conductance calcium-activated potassium channels” (ICAgen, Incorporated, priority 1997, dated 2004).
# Like-named read-outs stand apart in the source and are kept apart here.
# Tests used:
# Assay type in all cases: cell-based
# [1] = target: T1, rSK2 (Rattus norvegicus, UniProt P70604); experiment: Macroscopic currents in inside-out macropatches excised from Xenopus oocytes expressing rSK2
# T1 construct: expressed in transfected cells; host or cells: Xenopus oocytes injected with in vitro transcribed mRNA
# Text: (§1) Electrode resistance was typically 2-5 MΩ. Membrane patches were voltage clamped using an Axopatch 200A amplifier (Axon Instruments).
# (§2) To compare hIK1 and SK2, normalized current was plotted as a function of Ca^2+ concentration, and the data points fitted with the Hill equation.
# [2] = target: T2, hSK1 (Homo sapiens, UniProt Q92952); experiment: Macroscopic currents in inside-out macropatches excised from Xenopus oocytes expressing hSK1
# T2 construct: expressed in transfected cells; host or cells: Xenopus oocytes injected with in vitro transcribed mRNA
# Text: as §1
# [3] = target: T3, hIK1 (Homo sapiens, UniProt O15554); experiment: Macroscopic hIK1 currents in macropatches excised from Xenopus oocytes
# T3 construct: expressed in transfected cells; host or cells: Xenopus oocytes injected with SP6-transcribed mRNA from vector pBF
# Procedure: 3B. Example 3B describes the electrophysiology of the hIK1 channel. All hIK1 channel subunits were subcloned into the oocyte expression vector pBF (unpublished, graciously provided by Dr. B. Fakler) which provides 5′ and 3′ untranslated regions from the Xenopus β-globin gene flanking a polylinker containing multiple restriction sites. In vitro mRNAs were generated using SP6 polymerase (GibcoBRL); following synthesis, mRNAs were evaluated spectrophotometrically and by ethidium bromide staining after agarose gel electrophoresis.
# As described above, Xenopus care and handling were in accordance with the highest standards of institutional guidelines. Frogs underwent no more than two surgeries, separated by at least three weeks, and All surgeries were performed using well established techniques. Frogs were anesthetized with an aerated solution of 3-aminobenzoic acid ethyl ester. Oocytes were studied 2-14 days after injection with 0.5-5 ng of mRNA.
# Inside-out macropatches were excised into an intracellular solution containing 116 mM K-gluconate. 4 mM KCl, 10 mM HEPES (pH 7.2, adjusted with KOH) supplemented with CaCl2 to give free calcium concentration of 5 μM; the proportion of calcium binding to gluconate was determined by a computer program (CaBuf assuming a stability constant for Ca^2+ gluconate of 15.9M^−1 (Dawson et al., 1969). To obtain Ca^2+ concentrations below 1 μM, 1 mM EGTA was added to the bath solution and CaCl2 was added as calculated using the CaBuf program and published stability constants (Fabiato and Fabiato, 1979). Electrodes were pulled from thin-wailed, filamented borosilicate glass (World Precision Instruments) and filled with 116 mM K-gluconate, 4 mM KCl, 10 mM HEPES (pH 7.2). Electrode resistance was typically 2-5 MΩ. For outside-out macropatches, the solutions were reversed. Membrane patches were voltage clamped using an Axopatch 200A amplifier (Axon Instruments). The data were low-pass Bessel filtered at 1 kH and acquired using Pulse software (HEKA Electronik). Analysis was performed using Pulse, Kaleidagraph (Abelbeck), or IGOR (Wavemetrics) software. Unless otherwise stated all experiments were performed at room temperature from a holding potential of 0 mV. 2.5 second voltage ramps from −100 to either 60 or 100 mV were acquired at a sampling frequency of 500 Hz. Values were expressed as mean±SD. Statistical differences were determined using an unpaired t-test; p values <0.05 were considered significant.
# as §2
# T2 sequence (Q92952 other isoform, or with tags, fused parts or gaps): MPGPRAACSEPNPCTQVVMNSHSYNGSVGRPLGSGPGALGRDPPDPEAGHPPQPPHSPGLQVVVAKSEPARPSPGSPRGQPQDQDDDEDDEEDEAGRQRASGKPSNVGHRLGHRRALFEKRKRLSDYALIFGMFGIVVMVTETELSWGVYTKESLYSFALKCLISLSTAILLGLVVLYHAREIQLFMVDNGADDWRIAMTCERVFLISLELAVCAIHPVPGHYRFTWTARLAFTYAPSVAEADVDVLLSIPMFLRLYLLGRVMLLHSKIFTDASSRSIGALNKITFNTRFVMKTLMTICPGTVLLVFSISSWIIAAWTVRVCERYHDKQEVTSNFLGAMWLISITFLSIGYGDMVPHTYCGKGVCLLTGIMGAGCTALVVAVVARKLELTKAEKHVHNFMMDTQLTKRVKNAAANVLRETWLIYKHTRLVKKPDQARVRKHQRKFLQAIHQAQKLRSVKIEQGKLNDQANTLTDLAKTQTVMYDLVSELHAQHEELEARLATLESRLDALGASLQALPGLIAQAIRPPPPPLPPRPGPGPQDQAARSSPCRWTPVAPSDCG
# T1 sequence (P70604 whole entry): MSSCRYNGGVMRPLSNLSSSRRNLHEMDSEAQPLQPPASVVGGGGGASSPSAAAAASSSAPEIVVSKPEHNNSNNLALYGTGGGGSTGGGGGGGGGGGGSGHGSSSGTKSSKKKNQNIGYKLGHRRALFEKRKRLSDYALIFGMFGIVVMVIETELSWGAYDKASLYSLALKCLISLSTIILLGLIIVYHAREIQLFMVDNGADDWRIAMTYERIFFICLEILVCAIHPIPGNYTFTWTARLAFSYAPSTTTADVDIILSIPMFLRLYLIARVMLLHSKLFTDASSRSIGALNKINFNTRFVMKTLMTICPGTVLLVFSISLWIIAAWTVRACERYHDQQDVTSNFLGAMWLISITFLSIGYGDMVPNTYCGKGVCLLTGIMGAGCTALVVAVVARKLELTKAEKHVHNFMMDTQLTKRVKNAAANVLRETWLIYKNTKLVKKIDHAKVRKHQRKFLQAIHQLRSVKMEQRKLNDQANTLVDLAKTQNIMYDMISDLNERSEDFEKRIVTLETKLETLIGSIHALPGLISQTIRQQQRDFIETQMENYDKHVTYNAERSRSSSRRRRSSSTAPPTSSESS
molecule,measurement,setting,value
[Ca+2] [calcium],"Hill coefficient of calcium dependence, rSK2","[1]; Hill fit, 8 patches",4.81±1.46
same,"Hill coefficient of Ca2+-dependence, SK2",[1]; n=4,3.5±0.4
same,Kd,"[1]; slope conductance at reversal potential versus calcium, Hill fit, 8 patches, read-out: average Kd for calcium, rSK2",630 ± 230 nM
same,"Hill coefficient of calcium dependence, hSK1",[2]; Hill fit,3.90±0.45
same,Kd,"[2]; Hill fit, read-out: Kd for calcium, hSK1",700 ± 60 nM
same,"Hill coefficient of Ca2+-dependence, hIK1",[3]; n=7,1.7±0.3
same,EC50,"[3]; normalized current versus Ca2+ concentration, n=7, read-out: K0.5 (concentration for half-maximal activation), hIK1",320 ± 30 nM
iberiotoxin (QFTDVDCSVSKECWSVCKDLFGVDRGKCMGKKCRCYQ) [IBX],block of hIK1 currents,[3]; 50 nM IBX,15±3%
"COc1cc2c3cc1Oc1cc(ccc1O)C[C@@H]1c4c(cc(OC)c(O)c4Oc4ccc(cc4)C[C@@H]3N(C)CC2)CC[N+]1(C)C [dTC, d-tubocurare, reference compound]",Kd,"[1]; 5 μM Ca2+, inside-out macropatches, dTC in patch pipette, read-out: Kd for block of rSK2 currents",2400 nM
same,"fold less sensitive, hSK1 versus rSK2",[2]; ratio of Kd hSK1 to Kd rSK2,approximately 30 fold
same,Kd,[2]; read-out: Kd for block of hSK1,76200 nM
CC(C)C[C@@H]1NC(=O)[C@H](C)NC(=O)[C@H]([C@@H](C)O)NC(=O)[C@H](CCC(=O)O)NC(=O)[C@@H]2CCCN2C(=O)[C@H](C)NC(=O)[C@H](CCCCN)NC(=O)[C@@H]2CSSC[C@@H](C(=O)N[C@@H](CCC(N)=O)C(=O)N[C@@H](CCC(N)=O)C(=O)N[C@@H](Cc3cnc[nH]3)C(N)=O)NC(=O)[C@H](CCCNC(=N)N)NC(=O)[C@H](CCCNC(=N)N)NC(=O)[C@H](C)NC(=O)[C@H](CSSC[C@H](N)C(=O)N[C@@H](CC(N)=O)C(=O)N2)NC1=O [apamin],reduction of hIK1 currents,[3]; 100 nM apamin,12±5%
CC(=O)N1CCN(c2ccc(OCC3COC(Cn4ccnc4)(c4ccc(Cl)cc4Cl)O3)cc2)CC1 (stereo not shown) [ketoconazole],block of hIK1,[3]; 10 μM ketoconazole,24±6%
